In US5656662A, “Synthesis of optically pure 4-alkenyl- or 4-alkanyl-2-hydroxytetronic acids” (The Ohio State University Research Foundation, priority 1995, dated 1997):

What was measured:
Assay type in all cases: cell-based
PAF = PAF production by purified human monocytes; set-up: key: NE: No effect; INHIB: Inhibition; STIM: Stimulation; IC40: 40% Inhibitory Concentration; EC50: 50% Effective Concentration; TC: Tolerated Concentration; IA: Interferes with Assay
Method: (§1) This assay measures the ability of test compounds to modulate the amount of PAF produced by purified human monocytes. Compounds are tested for their ability to downregulate the secretion of PAF from activated monocytes, or upregulate secretion of PAF from unstimulated monocytes. Test compounds are incubated for ninety minutes with purified human monocytes ar four dilutions over a range of three log10 concentrations. Where appropriate, zymosan is used to stimulate the monocytes.
The level of PAF in the resultant supernatants is quantitated by immunoassay performed in a 96 well format. PAF levels modulated by unknown compounds are determined by interpolation from a standard curve. All compounds are tested in duplicate with controls and standards.
as §1, with “by purified,” for “by purified”

TxA2 = TxA2 production by purified human monocytes; set-up: key to EFFECT on TxA2: NE: No effect; INHIB: Inhibition; STIM: Stimulation; IC40: 40% Inhibitory Concentration; EC50: 50% Effective Concentration; TC: Tolerated Concentration; IA: Interferes with Assay
Method: This procedure measures the ability of test compounds to modulate the amount of TxA2 (the major cyclo-oxygenase product) produced by purified human monocytes. Compounds are tested for their ability to downregulate the secretion of TxA2 from activated monocytes, or upregulate secretion of TxA2 from unstimulated monocytes. Test compounds are incubated for ninety minutes with purified human monocytes at four dilutions over a range of three log10 concentrations. Where appropriate, zymosan is used to stimulate the monocytes.
The level of TxA2 in the resultant supernatants is quantitated by immunoassay performed in a 96 well format. TxA2 levels modulated by unknown compounds are determined by interpolation from a standard curve. All compounds are tested in duplicate with controls and standards.

LTB4 = LTB4 production by purified human monocytes; set-up: key: NE: No effect; INHIB: Inhibition; STIM: Stimulation; IC40: 40% Inhibitory Concentration; EC50: 50% Effective Concentration; TC: Tolerated Concentration; IA: Interferes with Assay
Method: This assay measures the ability of test compounds to modulate the amount of LTB4 produced by the oxygenation of arachidonic acid by 5-lipooxygenase produced by purified human monocytes. Compounds are tested for their ability to downregulate the secretion of LTB4 from activated monocytes, or upregulate secretion of LTB4 from unstimulated monocytes. Test compounds are incubated for ninety minutes with purified human monocytes at four dilutions over a range of three log10 concentrations. Where appropriate, zymosan is used to stimulate the monocytes.
The level of LTB4 in the resultant supernatants is quantitated by immunoassay performed in a 96 well format. LTB4 levels modulated by unknown compounds are determined by interpolation from a standard curve. All compounds are tested in duplicate with controls and standards.

Compound: CCCCCCCCCCCCCC/C=C\CC[C@@H]1OC(=O)C(O)=C1O [(S)-3,4-Dihydroxy-5-[(Z)-3-octadecenyl]-2(5H)-furanone]
- EFFECT on PAF (PAF; STIMULATED): NE
- EFFECT on PAF (PAF; UNSTIMULATED): NE
- EC50 (TxA2; Homo sapiens, Monocyte, STIMULATED, INHIB): 5 µM
- EFFECT on TxA2 (TxA2; STIMULATED): INHIB
- EFFECT on TxA2 (TxA2; UNSTIMULATED): NE
- EFFECT on LTB4 (LTB4; STIMULATED): NE
- EFFECT on LTB4 (LTB4; UNSTIMULATED): NE
